According to patent publication US20250122225A1, “MASP-2 INHIBITORS AND METHODS OF USE” (Omeros Corporation, priority 2023, published 2025):
Counter-ions that a name gives are not always drawn.

Key:
human α-thrombin = biological target: T1, human α-thrombin (Homo sapiens, UniProt P00734); assay: Enzymatic assay for thrombin (fluorogenic peptide substrate Boc-VPR-AMC); format: biochemical
T1 construct: enzyme (human α-thrombin (BioPharm® Lab.)) in assay buffer; purchased BioPharm® Lab
Method: The thrombin assay utilizes a fluorogenic peptide substrate (Boc-VPR-AMC (R&D Systems) and was run at room temperature in an assay buffer containing 20 mM Hepes, pH 7.4, 140 mM NaCl and 0.1% Tween 20. Assay parameters were adjusted such that the assay was linear with respect to time, enzyme, and substrate concentrations. Under these optimized assays conditions, IC50 values were equivalent to Ki values, except in a few cases of “tight binding” inhibitors. Cases of “tight binding” or possible “slow binding” inhibitors were handled by the methods described in Copeland R. A. (2013) Evaluation of Enzyme Inhibitors in Drug Discovery. 2nd Ed. John Wiley and Sons, Inc., Chapters 5-7.
The thrombin assay protocol was carried out as follows. Test compounds were serially diluted in DMSO and then 100 nL of each dilution was transferred to the assay plate(s). 10 μL of Assay Buffer was added, followed by 15 μL of enzyme (human α-thrombin (BioPharm® Lab.)) in assay buffer. 15 μL of substrate in assay buffer was then added and the sample mixed to start the reaction. After 20 min at room temperature, 15 μL of a stop solution (0.1 M acetic acid) was added, the sample was mixed, and the plates were read on a SpectraMax® i3x Microplate Reader with the data exported as Excel files. Each assay plate included a “no inhibitor” (DMSO only) control, a “no enzyme” control, and a reference inhibitor control. % Activity values=100*(ave. test comp. fluorescence−ave. “no enz” fluorescence)/(ave. “DMSO only” fluorescence−ave. “no enz” fluorescence). IC50 and Ki values were very reproducible, with values falling well within ±2-fold.

MASP-2 (CCP1-CCP2-SP) = biological target: T2, MASP-2 (CCP1-CCP2-SP) (Homo sapiens, UniProt O00187); assay: Enzymatic assay for MASP-2 inhibitory activity (fluorogenic substrate); format: biochemical
T2 construct: 15 μL of Enzyme MASP-2 (CCP1-CCP2-SP) in Assay Buffer
Method: The MASP-2 assay utilizes a fluorogenic substrate, based on the cleavage site for its natural substrate C2. The assay was run at room temperature in an assay buffer containing 20 mM HEPES, pH 7.4, 140 mM NaCl and 0.1% Tween 20. Assay parameters were adjusted such that the assay was linear with respect to time, enzyme, and substrate concentrations. Under the optimized assays conditions, IC50 values were equivalent to Ki values, except in the few cases of “tight binding” inhibitors. Cases of “tight binding” or possible “slow binding” inhibitors were handled by the methods described in Copeland R. A. (2013) Evaluation of Enzyme Inhibitors in Drug Discovery. 2nd Ed., John Wiley and Sons, Inc., Chapters 5-7.
The MASP-2 assay protocol was carried out as follows. Test compounds were serially diluted in DMSO and then 100 nL of each dilution was transferred to the assay plate(s). 10 μL of Assay Buffer was added, followed by 15 μL of Enzyme MASP-2 (CCP1-CCP2-SP) in Assay Buffer. 15 μL of Substrate in Assay Buffer was then added and the mixture was mixed to start the reaction. After 20 min at room temperature, 15 μL of a stop solution (0.1 M acetic acid) was added, the sample was mixed, and the plates were read on a SpectraMax i3x Microplate Reader with the data exported as an Excel file. Each assay plate included a “no inhibitor” (DMSO only) control, a “no enzyme” control, and a reference inhibitor control. % Activity values=100*(average test comp. fluorescence−average “no enzyme” fluorescence)/(average “DMSO only” fluorescence−average “no enzyme” fluorescence). IC50 and Ki replicate values were very reproducible, with values well within ±2-fold.

T2 sequence (O00187 445-686 limits assumed): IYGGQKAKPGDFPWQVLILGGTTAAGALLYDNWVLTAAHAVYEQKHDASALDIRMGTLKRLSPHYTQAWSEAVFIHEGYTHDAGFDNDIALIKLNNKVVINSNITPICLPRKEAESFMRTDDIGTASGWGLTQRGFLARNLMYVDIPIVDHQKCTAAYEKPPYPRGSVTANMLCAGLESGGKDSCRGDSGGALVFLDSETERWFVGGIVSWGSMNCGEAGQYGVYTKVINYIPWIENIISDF
T2 sequence (O00187 287-444 partner limits assumed): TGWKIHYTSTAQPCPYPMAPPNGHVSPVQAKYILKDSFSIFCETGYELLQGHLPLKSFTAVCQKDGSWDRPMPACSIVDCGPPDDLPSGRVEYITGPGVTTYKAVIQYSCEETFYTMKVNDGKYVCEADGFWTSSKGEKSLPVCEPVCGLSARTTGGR

Row | Ki (human α-thrombin) [nM] | Ki (MASP-2 (CCP1-CCP2-SP)) [nM] | Compound
1 | 2500 to 10000 | < 500 | Cc1cc(F)cc(CNc2ncc3n(c2=O)[C@H](C(=O)N[C@H](C)c2ccc(N)nc2)CC3)c1 [Compound 191, (S)-N-((R)-1-(6-aminopyridin-3-yl)ethyl)-3-((3-fluoro-5-methylbenzyl)amino)-4-oxo-4,6,7,8-tetrahydropyrrolo[1,2-a]pyrazine-6-carboxamide trifluoroacetate]
2 | > 25000 | 500 to 2500 | Nc1nc(Cl)c2n(c1=O)[C@H](C(=O)NCc1cc3cnccc3[nH]1)CC21CCCC1 [Compound 232, (S)—N-((1H-pyrrolo[3,2-c]pyridin-2-yl)methyl)-3′-amino-1′-chloro-4′-oxo-6′,7′-dihydro-4′H-spiro[cyclopentane-1,8′-pyrrolo[1,2-a]pyrazine]-6′-carboxamide trifluoroacetate]
3 | < 500 | < 500 | CC(C)c1cccc(CNc2ncc3n(c2=O)[C@H](C(=O)NCc2ccc(N)nc2)CC3)c1 [Compound 207, (S)—N-((6-aminopyridin-3-yl)methyl)-3-((3-isopropylbenzyl)amino)-4-oxo-4,6,7,8-tetrahydropyrrolo[1,2-a]pyrazine-6-carboxamide trifluoroacetate]
4 | < 500 | < 500 | Cc1cc(F)cc(CNc2nc(C(C)C)c3n(c2=O)[C@H](C(=O)NCc2ccc(N)nc2C)CC3)c1 [Compound 211, (S)-N-((6-amino-2-methylpyridin-3-yl)methyl)-3-((3-fluoro-5-methylbenzyl)amino)-1-isopropyl-4-oxo-4,6,7,8-tetrahydropyrrolo[1,2-a]pyrazine-6-carboxamide trifluoroacetate]
5 | 2500 to 10000 | < 500 | CCc1cccc(CNc2ncc3n(c2=O)[C@H](C(=O)N[C@H](C)c2ccc(N)nc2)CC3)c1 [Compound 195, (S)-N-((R)-1-(6-aminopyridin-3-yl)ethyl)-3-((3-ethylbenzyl)amino)-4-oxo-4,6,7,8-tetrahydropyrrolo[1,2-a]pyrazine-6-carboxamide trifluoroacetate]
6 | 500 to 2500 | < 500 | CC[C@@H](Nc1ncc2n(c1=O)[C@H](C(=O)NCc1cc3c(s1)CNC3)CC2)c1ccc2ccccc2c1 [Compound 263, (S)-N-((5,6-dihydro-4H-thieno[2,3-c]pyrrol-2-yl)methyl)-3-(((R)-1-(naphthalen-2-yl)propyl)amino)-4-oxo-4,6,7,8-tetrahydropyrrolo[1,2-a]pyrazine-6-carboxamide trifluoroacetate]
7 | 500 to 2500 | < 500 | O=C(NCc1cc2cnccc2[nH]1)[C@@H]1CCc2c(Cl)nc(NCC3(c4ccccc4)COC3)c(=O)n21 [Compound 251]
8 | 500 to 2500 | < 500 | Nc1ccc2c(n1)CC[C@H]2NC(=O)[C@@H]1CCc2cnc(NCc3cccc(-c4ccccc4)c3)c(=O)n21 [Compound 236]
9 | 2500 to 10000 | < 500 | Cc1ccc(C)c(CNc2ncc3n(c2=O)[C@H](C(=O)N[C@H](C)c2ccc(N)nc2)CC3)c1 [Compound 193, (S)-N-((R)-1-(6-aminopyridin-3-yl)ethyl)-3-((2,5-dimethylbenzyl)amino)-4-oxo-4,6,7,8-tetrahydropyrrolo[1,2-a]pyrazine-6-carboxamide trifluoroacetate]

Continued, compound first:

Row | Compound | Ki (human α-thrombin) [nM] | Ki (MASP-2 (CCP1-CCP2-SP)) [nM]
10 | Cc1cc(C)cc(CNc2ncc3n(c2=O)[C@H](C(=O)NCc2ccncc2)CC3)c1 [Compound 86, (S)-3-((3,5-dimethylbenzyl)amino)-4-oxo-N-(pyridin-4-ylmethyl)-4,6,7,8-tetrahydropyrrolo[1,2-a]pyrazine-6-carboxamide] | > 25000 | 500 to 2500
11 | Cc1cccc(C2(Nc3nc(Cl)c4n(c3=O)[C@H](C(=O)NCc3cc5cnccc5[nH]3)CC4)CC2)c1 [Compound 110, (S)—N-((1H-pyrrolo[3,2-c]pyridin-2-yl)methyl)-1-chloro-4-oxo-3-((1-(m-tolyl)cyclopropyl)amino)-4,6,7,8-tetrahydropyrrolo[1,2-a]pyrazine-6-carboxamide trifluoroacetate] | 2500 to 10000 | < 500
12 | Cc1ccc(CNc2nc(Cl)c3n(c2=O)[C@H](C(=O)NCc2cc4cnccc4[nH]2)CC3)cc1C [Compound 26, (S)-N-((1H-pyrrolo[3,2-c]pyridin-2-yl)methyl)-1-chloro-3-((3,4-dimethylbenzyl)amino)-4-oxo-4,6,7,8-tetrahydropyrrolo[1,2-a]pyrazine-6-carboxamide] | 10000 to 25000 | < 500
13 | CC[C@H]1C[C@@H](C(=O)NCc2ccc(N)nc2)n2c1cnc(NCc1cc(C)cc(C)c1)c2=O [Compound 157, (6S,8S)-N-((6-aminopyridin-3-yl)methyl)-3-((3,5-dimethylbenzyl)amino)-8-ethyl-4-oxo-4,6,7,8-tetrahydropyrrolo[1,2-a]pyrazine-6-carboxamide] | < 500 | < 500
14 | Cc1cc(C)cc(CNc2ncc3n(c2=O)[C@H](C(=O)NCc2cc4c(s2)CN(C)C4)CC3)c1 [Compound 42, (S)-3-((3,5-dimethylbenzyl)amino)-N-((5-methyl-5,6-dihydro-4H-thieno[2,3-c]pyrrol-2-yl)methyl)-4-oxo-4,6,7,8-tetrahydropyrrolo[1,2-a]pyrazine-6-carboxamide trifluoroacetate] | 10000 to 25000 | < 500
15 | Cc1nc(N)ccc1CNC(=O)[C@@H]1CCc2cnc(NCc3cccc(C(C)(C)O)c3)c(=O)n21 [Compound 66, (S)-N-((6-amino-2-methylpyridin-3-yl)methyl)-3-((3-(2-hydroxypropan-2-yl)benzyl)amino)-4-oxo-4,6,7,8-tetrahydropyrrolo[1,2-a]pyrazine-6-carboxamide] | < 500 | < 500
16 | Cc1cc(F)cc(CNc2ncc3n(c2=O)[C@H](C(=O)NCc2ccc(N)nc2)CC3)c1 [Compound 72, (S)-N-((6-aminopyridin-3-yl)methyl)-3-((3-fluoro-5-methylbenzyl)amino)-4-oxo-4,6,7,8-tetrahydropyrrolo[1,2-a]pyrazine-6-carboxamide] | < 500 | < 500
17 | Cc1nc(N)ccc1CNC(=O)[C@@H]1CCc2cnc(NCC3CCOCC3)c(=O)n21 [Compound 116, (S)—N-((6-amino-2-methylpyridin-3-yl)methyl)-4-oxo-3-(((tetrahydro-2H-pyran-4-yl)methyl)amino)-4,6,7,8-tetrahydropyrrolo[1,2-a]pyrazine-6-carboxamide] | 500 to 2500 | < 500
18 | CC[C@H]1C[C@@H](C(=O)NCc2ccc(N)nc2C)n2c1c(Cl)nc(NCc1ccccc1)c2=O [Compound 134, (6S,8S)-N-((6-amino-2-methylpyridin-3-yl)methyl)-3-(benzylamino)-1-chloro-8-ethyl-4-oxo-4,6,7,8-tetrahydropyrrolo[1,2-a]pyrazine-6-carboxamide] | 500 to 2500 | < 500
19 | Cc1ccc(CNc2ncc3n(c2=O)[C@H](C(=O)NCc2cc4cnccc4[nH]2)CC3)cc1C [Compound 44, (S)-N-((1H-pyrrolo[3,2-c]pyridin-2-yl)methyl)-3-((3,4-dimethylbenzyl)amino)-4-oxo-4,6,7,8-tetrahydropyrrolo[1,2-a]pyrazine-6-carboxamide] | 500 to 2500 | < 500
20 | Nc1nc2cc(CNC(=O)[C@@H]3CCc4c(Cl)nc(NCc5ccccc5)c(=O)n43)ccc2[nH]1 [Compound 29, trifluoroacetate] | 10000 to 25000 | < 500
21 | Cc1cc(C)cc(CNc2nc(Cl)c3n(c2=O)[C@H](C(=O)NCc2cc4cnccc4[nH]2)CC3)c1 [Compound 1, (S)—N-((1H-pyrrolo[3,2-c]pyridin-2-yl)methyl)-1-chloro-3-((3,5-dimethylbenzyl)amino)-4-oxo-4,6,7,8-tetrahydropyrrolo[1,2-a]pyrazine-6-carboxamide] | 10000 to 25000 | < 500
